EP4631957A1, “PEPTIDE FOR CARTILAGE REGENERATION, AND USES THEREOF” (Caregen Co., Ltd., priority 2022, dated 2024)
Where a SMILES comes first, the peptide text is derived from it. Where no end group is shown, it is not given here.

Tested on: C28/I2 cells
Test: CCK-8 cytotoxicity assay in human-derived chondrocytes
Type: cell-based
Details: peptide at different concentrations, 3 days, read at 450 nm, FIG. 1 and FIG. 2
Description: The cytotoxicity of Peptide-1 or Peptide-2 upon addition to human-derived chondrocytes (C28/I2, human chondrocyte cell line) was analyzed using a CCK-8 assay.
Specifically, human-derived chondrocytes were seeded in a 96-well plate at a density of 3 × 10^3 cells/well and cultured in DMEM medium (cat. 11995-065, Gibco) for 24 hours. […] Meanwhile, as a negative control group (CON), an experimental group to which the peptide was not added was used.

Molecule	toxicity in human-derived chondrocytes (CCK-8 activity)
N=C(N)NCCC[C@H](N)C(=O)N[C@@H](Cc1ccc(O)cc1)C(=O)N[C@@H](Cc1ccccc1)C(=O)O [Peptide-1, Arg(R)-Tyr(Y)-Phe(F)] (H-Arg-Tyr-Phe-OH)	did not exhibit toxicity
TAVRVG [Peptide-2]	did not exhibit toxicity
